Data as given in publication PMC4552634, “A New Set of Chemical Starting Points with Plasmodium falciparum Transmission-Blocking Potential for Antimalarial Drug Discovery” (PLoS ONE, 2015).
pIC50: −log10 of the molar value. Like-named read-outs stand apart in the source and are kept apart here.

Legend:
[1] = test system: P. falciparum stage V gametocytes; assay: microbe, parasite or virus in culture; parameters: BacTiter-Glo ATP luminescence viability of stage V gametocytes, 11-point dose-response IC50; settings: Plasmodium falciparum, 48 h; sheet CSAanalogstable
Method: Once purified, gametocytes were counted using a Neubauer chamber, and the density was adjusted to 2.5 x 10^5 gametocytes/mL. Fifty μL of the gametocyte suspension (1.25 x 10^4 gametocytes) were added to each well of the 384-well plate containing the compounds, using a Multidrop combi (Thermo Electron Corporation). Plates were shaken for 5 sec to homogenize and then incubated at 37°C for 48 h in an atmosphere of 5% CO2, 5% O2, 90% N2. The ATP level of each well was determined using the BacTiter-Glo reagent (Promega) according to the recommendations of the manufacturer. The BacTiter-Glo assay generates a ‘glow-type’ luminescent signal produced by the luciferase reaction, which consists of mono-oxygenation of luciferin catalyzed by luciferase in the presence of Mg^2+, ATP and molecular oxygen. The luminescence was measured using a plate reader (Victor V, Perkin Elmer). […] The background value was subtracted from every other value of the assay prior to further calculation. The average of 16 replicates of vehicle control (0.5% or 0.1% DMSO) represents 100% of signal. Related to this value, each test concentration was calculated as percentage of control. […] However, there was no significant correlation between compound IC50 values obtained against gametocytes and the inhibition of growth of P. falciparum asexual forms as previously determined for TCAMS [6] […]

HepG2 cells = assay: Cytotoxicity in HepG2 cells (intracellular ATP, ATPlite, 48 h); assay type: cell-based, human; settings: for Ratio IC50 HepG2/IC50 P. falciparum: IC50 HepG2 divided by IC50 P. falciparum gametocytes
[2] = test system: P. falciparum asexual stages; settings: cited from earlier work; for pIC50: asexual stages, read-out: IC50 asexual
[3] = test system: P. falciparum stage V gametocytes; assay: Gametocytocidal ATP bioluminescence assay (single point 5 μM and 1 μM, dose-response); assay type: cell-based, Plasmodium falciparum; settings: for Ratio IC50 HepG2/IC50 P. falciparum: IC50 HepG2 divided by IC50 P. falciparum gametocytes; for IC50: P. falciparum gametocytes, average, read-out: IC50 Pf Gametocytes average, IC50 (µM) average; for IC90: ATP assay, Fig 7, read-out: IC90 against gametocytes; for pIC50: sexual stages (gametocytes), dose-response, read-out: IC50 sexual
Method: Purified stage IV-V gametocytes were obtained as previously described [10]. Single point ATP bioluminescence assay and dose–response of positive hits was determined in accordance with the previously published protocol [10].

[4] = test system: mature P. falciparum NF54 gametocytes (male gametocyte exflagellation); assay: Exflagellation assay; assay type: cell-based, Plasmodium falciparum; settings: for % Exflagellation inh. at the IC90: 48 h, concentration = IC90, Fig 7; for % Inhibition exflagellation: 48 h post-treatment at the IC90 of the ATP assay, normalized to control, Fig 6
Method: The exflagellation assay was performed as described by Delves et al., with some modifications. Briefly, 200 μL samples of mature P. falciparum NF54 gametocytes culture in the presence of the corresponding test compound were incubated at 37°C for 48 h in an atmosphere of 5% CO2, 5% O2, 90% N2 in 1.5 mL microfuge tubes. After the incubation period, cells were settled down and medium was carefully removed. The cell pellets were resuspended in 15 μl of complete ookinete medium (RPMI medium with 25 mM HEPES, 50 mg/L hypoxanthine, 2 g/L sodium bicarbonate, 100 μM xanthurenic acid, 20% human serum) pre-warmed at 37°C. Once parasites were resuspended in ookinete medium, they were introduced in a chamber of a FastRead disposable hemocytometer slide and placed on a horizontal surface at room temperature (21°C), to allow cells to homogeneously settle, forming a tight monolayer.

[5] = test system: luciferase reaction (BacTiter-Glo); assay: Interference assay (inhibition of the BacTiter-Glo luciferase reaction); assay type: biochemical; parameters: concentration or dose not given beside the values; settings: ATP interference assay
Method: To discard possible false-positive results, we performed an interference assay in parallel. […] […]. The ATP solution was made by dissolving ATP powder (ATP standard from the ATPlite 1 step assay kit, reference 6016731, Perkin Elmer) in culture medium. The positive control used was the Luciferase Inhibitor I Calbiochem (Merck, 119113) at 100 μM.

[6] = Cytotoxicity in HepG2 cells (intracellular ATP, ATPlite, 48 h); assay type: cell-based, human; settings: human, HepG2 cells
[7] = test system: P. falciparum NF54 gametocytes fed to An. stephensi mosquitoes; assay: Standard membrane feeding assay (SMFA); assay type: in vivo, Plasmodium falciparum; settings: for Infection Prevalence (%): An. stephensi fed gametocytes treated 48 h at the IC90, Fig 6, one of two independent experiments, control 94%; for % Prevalence of infection / % Reduction oocysts SMFA / Block in Transmission (%) / Reduction in Oocyst (%): gametocytes treated 48 h at the IC90; for % Prevalence of infection / % Reduction oocysts SMFA: Fig 7; for Block in Transmission (%) / Reduction in Oocyst (%): normalized to DMSO control, Fig 6; for Reduction in Oocyst (%): mean oocyst intensity
Method: Gametocyte cultures of the P. falciparum NF54 strain, kindly provided by Robert Sinden (Imperial College London), were induced at 0.5% asexual parasitemia and 4% hematocrit (RBCs from the Spanish Red Cross) at 40 mL final volume in T75 flasks. Gametocyte production media comprised RPMI 1640 (Sigma, #R5886), 30 mM bicarbonate (Sigma-Aldrich, #S5761) and 5 mM hypoxanthine (Gibco, #11067–030). Media were made complete with 5% human serum A^+ (Interstate Blood Bank, USA) and 5% AlbuMAX II (Gibco, #11021–037). Cultures were maintained in a gassed incubator at 37°C with 5% CO2, 5% O2, 90% N2 for 14–17 days post-induction, with daily medium replacement without the addition of fresh RBCs. Percentages of mature gametocytes were assessed by microscopic counts (Leica, DM2000) of Giemsa-stained thin blood smears, and functional microgametocytes were assessed for exflagellation activity at room temperature. To test exflagellation, mature gametocyte cultures were centrifuged at 1800 rpm for one minute. The infected RBC pellet was gently mixed with an equal volume of pre-warmed human serum and introduced onto a slide with a coverslip, followed by incubation at room temperature for 10–15 min. The average exflagellation centers per field at 10X magnification was determined by the exflagellation assay described above. Gametocyte counts and exflagellation assays were performed both before and after gametocyte drug treatment (at the time of SMFA).
Two days before gametocyte treatment with compound, spent media was removed and fresh Gametocyte Treatment Medium consisting of RPMI1640 with L-glutamine and 25 mM HEPES (Gibco, #13018–031), 10 mM glucose (Sigma-Aldrich, #G8270), 20 mM bicarbonate (Sigma-Aldrich, #S5761) and 5 mM hypoxanthine (Gibco, #11067) was added. Media were made complete with 10% of human A^+ serum (Interstate Blood Bank). Five ml of mature gametocyte culture at day 15 post-induction was transferred into each well of a pre-warmed 6-well plate. The selected TCAMS compounds were prepared fresh as a stock solution of 10 mM in 100% of DMSO and added to the mature gametocytes at the concentrations described in Fig 7. Gametocytes were exposed to the compound for a total duration of 48 h. At 24 h post-drug exposure, a fixed volume (3 mL) of spent medium was removed and fresh medium was re-added, accompanied by compound replenishment to obtain the required final concentration. Untreated gametocytes with the same final concentration of DMSO (0.1%) as in treated gametocytes were processed in parallel.
On the day of the feed, cultures were centrifuged at 2500 g for 3 min at 37°C, diluted 1:1 with 100% packed cell volume of fresh RBCs, and finally formulated as artificial mosquito blood meals at 50% hematocrit with pre-warmed human serum. All steps were performed at 37°C. Prepared blood meals were fed in duplicate to 4–6 days old female An. stephensi mosquitoes for 30–40 min via Parafilm membrane attached to glass feeders (Fisher Scientific, #12831283) connected to a 37°C circulating water bath. Fed mosquitoes were maintained in an incubator at 27°C and 75% relative humidity with 12 h light/dark cycles. At 7–8 days post-feeding, mosquitoes with fully developed ovaries were dissected for midguts (Leica, M80) and incubated in 0.2% mercurochrome solution in distilled water for 10–15 min. The total number of oocysts in individual midguts was counted using a light microscope (Leica, DM2000) under a 10X objective (100X magnification). Both infection prevalence (percentage of mosquitoes with one or more oocysts) and mean oocyst intensity of infection were defined in each treatment. The percentage block in transmission and the percentage reduction in mean oocyst intensity were calculated after normalizing to the Control DMSO-treated sample.

[8] = P. falciparum asexual stages, TCAMS data, read-out: IC50 (µM) Pf asexual stages
[9] = HepG2, 48 h exposure, intracellular ATP, read-out: IC50 (μM) Cytotoxicity HepG2
[10] = IC50 per ratio column head, unit inferred, read-out: Cytotoxicity in HepG2

Compound	Ratio IC50 HepG2/IC50 P. falciparum (HepG2 cells)	IC50 [2, 8]	pIC50 ([2]; TCAMS data)	Ratio IC50 HepG2/IC50 P. falciparum [3]	% Exflagellation inh. at the IC90 [4]	% Control luminiscence [5]	IC50 at 48 h [6, 9]	IC50 at 48 h [6, 10]	Infection Prevalence (%) [7]	% Prevalence of infection [7]	% Reduction oocysts SMFA [7]	Block in Transmission (%) [7]	Reduction in Oocyst (%) [7]	IC90 ([3]; Plasmodium falciparum)	IC50 ([3]; Plasmodium falciparum)	pIC50 ([3]; Plasmodium falciparum)	% Inhibition exflagellation [4]	further results
CCC1=C(C[C@H]2NCCc3cc(OC)c(OC)cc32)C[C@H]2c3cc(OC)c(OC)cc3CCN2C1 [TCMDC-131825]	>83	0.31 µM	6.51	>83	–	–	–	–	–	–	–	–	–	–	–	–	–	pIC50 [1]: 6.52; pIC50 (HepG2 cells; HepG2 cells, IC50 per ratio column head, unit inferred): < 4.60; IC50 [3]: 0.3 µM
N=C(NCCCc1ccccc1)c1cccc(C(=N)NCCCc2ccccc2)n1 [TCMDC-137453]	41	1.38 µM	5.86	41	97.3%	100%	13 µM	12.8 µM	5%	5%	100%	95%	100%	2000 nM	0.31 µM	6.50	–	–
COc1cccc(NC(=O)[C@H](C(C)C)n2c(=O)[nH]c3ccccc3c2=O)c1 [TCMDC-125133]	>93	0.27 µM	6.58	>93	88%	100%	> 25 µM	> 50 µM	3%	3%	100%	97%	100%	2500 nM	0.54 µM	6.27	88.00%	–
CC(C)c1ccc(NC(=S)NN=Cc2ccccn2)cc1 [TCMDC-125520]	>1306	0.72 µM	6.14	>1306	–	–	13 µM	12.8 µM	–	–	–	–	–	–	< 0.0098 µM	–	–	pIC50 [1]: 8.01
CNC(=S)NN=C(C)c1ccccn1 [TCMDC-123475]	–	0.27 µM	6.57	–	97.7%	–	–	> 25 µM	0%	0%	100%	100%	100%	10000 nM	1.17 µM	–	97.7%	–
CCC1CN2CCc3cc(OC)c(OC)cc3C2CC1CC1NCCc2cc(OC)c(OC)cc21 (centres unmarked) [TCMDC-125849]	–	0.14 µM	6.84	–	99.2%	–	18 µM	17.7 µM	3%	3%	100%	97%	100%	2000 nM	–	6.93	–	–
Cc1c(Cl)cccc1NC(=S)NN=Cc1ccccn1 [TCMDC-125487]	–	0.6 µM	6.22	–	98.3%	–	–	> 25 µM	0%	1%	100%	100%	100%	2000 nM	0.27 µM	–	98.30%	–
Cc1[nH]c2ccccc2c1C(=O)C(C)Sc1nnc(-c2ccccc2Br)[nH]1 (centres unmarked) [TCMDC-125114]	74	0.0348 µM	7.46	74	97%	99%	> 25 µM	49.3 µM	2%	2%	100%	98%	100%	2500 nM	0.67 µM	–	97.00%	IC50 ([2]; as previously determined for TCAMS, read-out: IC50 (μM) Pf Asexual stages): 0.03 µM
